Ends that are not written are not given here.

Experiment [1] relates to lymphocytes from two non-related individuals. The experiment is described as follows: Human two-way mixed leukocyte culture (MLC). In kind it is cell-based. The note with it: 4 experiments, 6-day culture, coupled to BSA. As for the experimental part: Fifty μl of RPMI containing 1×10^5 lymphocytes from each of two non-related individuals was added to each well of a 96 well tissue culture plate. An additional 50 μl of RPMI was added and cultures were incubated at 37° C. in humidified 5% CO2 for 5 days. Fifty μl of RPMI containing either peptide or no addition was added for an additional 24 hr. During the final 4 hr of incubation each well was incubated with 25 μl of RPMI containing 0.5 μCi of ^3 H-thymidine and incorporated radionucleotide determined as above.

The test system of experiment [2] is human lymphocytes. The experiment is described as follows: Binding of [^125 I]-CKS-17-BSA to cultured human lymphocytes. To be noted: >1000 fold excess of unlabeled BSA conjugate. As for the experimental part:
Human mononuclear cells were stimulated for 3 days with PHA, washed free of lectin, cultured for 10 days with 10% of a human IL-2 preparation (electronucleonics) washed and resuspended to 5×10^6 cells/ml in phosphate-buffered-saline, pH 7.2 (PBS) containing 0.1% BSA. […] Binding was terminated and unbounded [^125 I]-CKS-17-BSA removed by rapid (30 sec.) centrifugation of the cells through oil. The cell associated radioactivity was measured using a gamma radiation counter.

Experiment [3] has as its system OKT3-stimulated human lymphocytes. In words: Human lymphocyte proliferative response to OKT3 antibody. The format is cell-based. The note with it: 5 experiments, 3 days, coupled to BSA. The protocol: One hundred μl of RPMI containing 2×10^5 lymphocytes was added to each well of a 96 well tissue culture plate. Fifty μl of RPMI containing either peptide or no addition was added for 2 hr at 37° C followed by the addition of 50 μl of RPMI containing nothing or Con A (40 μg/ml) or OKT3 antibody (1:1000 dilution). The cultures were incubated for 72 hr at 37° C. in 5% humidified CO2, pulsed with ^3 Hthymidine (0.,5 μCi/well, 4h.) and the incorporated radioactivity determined as described above. The concentration of OKT3 antibody used was previously determined to give 75-100% of a maximal response.

The subject of experiment [4] is murine CTLL-2 cells. In words: Murine cytotoxic T lymphocyte (CTLL-2) IL-2 dependent proliferation assay.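 As to all read-outs here: CTLL-2 cells, 4 x 10^3 per well in 96-well plates with RPMI plus 6% FBS, proliferation read as cell-bound radioactivity counted by liquid scintillation.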 The format is cell-based. To be noted: for average inhibition of CTLL-2 proliferation: coupled to BSA, CS-1 5 experiments, CS-3 4 experiments; for effect upon CTLL-2 cell proliferation: peptides coupled to BSA or control BSA, same conditions as the active peptide.
Procedure: Fifty μ1 of RPMI (6% FBS, 0% IL-2) containing 4 x 10^3 CTLL-2 cells was added to each well of a 96 well tissue culture plate (Falcon, Oxnard, CA). To each well was then added 50 μl of RPMI 1640 containing 3% human IL-2 50 μl of either RPMI or RPMI containing synthetic peptides. Cultures were then incubated for 24 hours at 37° C. in humidified 5% CO^2 Fifty μl of RPMI containing 1 μCi of ^3 H-thymidine (6.7 Ci/mmole; New England Nuclear, Boston, MA) was added to each well for the final 4 hours of cultures. Cells were collected by filtration onto glass fiber filters and incorporated radioactivity determined by liquid scintillation spectrophotometry.

The subject of experiment [5] is human monocytes. In words: Monocyte superoxide anion (O2^-) release. The format is cell-based. To be noted: WGA stimulated, peptide coupled to BSA, mean ± SE.
Procedure: Monocytes were aliquoted into 12×75 mm polypropylene tubes (Falcon, Oxnard, CA) and incubated at 37° C. with test materials for twenty minutes. Cytochalasin E was then added to give a final concentration of 5 μg/ml. Ten minutes later 1.5 mg/ml cytochrome C was added followed immediately by wheat germ agglutinin (WGA) to a final concentration of 30 μg/ml (1). Supernatants were removed after 5 min. for determination of O2^- dismutase-inhibitable reduction of cytochrome C (2).

For the substance AQNRRGLDLLFWEQGGL [CS-1], the “average inhibition of human two-way MLC” value in experiment [1] (3.75 μM) was 51.8%; in experiment [1] (7.5 μM), 72.2%; in experiment [1] (15 μM) it was 81.8%. For the same substance, the “inhibition of [^125 I]-CKS-17-BSA binding by excess unlabelled material” value in experiment [2] was “binding could be inhibited”. The “average inhibition of OKT3-stimulated lymphocyte proliferation” value in experiment [3] (ca. 3.75 μM) was determined as 26.8%; in experiment [3] (ca. 7.5 μM), 42.8%; in experiment [3] (ca. 15 μM), 57.6%. The “average inhibition of CTLL-2 proliferation” value in experiment [4] (ca. 3.75 μM) worked out at 13.4%; in experiment [4] (ca. 7.5 μM), 39.8%; in experiment [4] (ca. 15 μM) it was 92.8%.

As for “Glu-Val-Val-Leu-Glnpartial Asn-Arg-Arg-Gly-Leu-Asp-Leu-Leu (chain 1 EVVLQ; chain 2 NRRGLDLL; printed: Glu-Val-Val-Leu-Gln; printed: Asn-Arg-Arg-Gly-Leu-Asp-Leu-Leu) [SP-9]”, in experiment [4], the “effect upon CTLL-2 cell proliferation” value is “little or no effect”. In addition, the figures for the “O2^- Release” value in experiment [5] (dilution 1:20) and in experiment [5] (dilution 1:40) were 10.6 ± 0.3 nmoles/5 minues/1.2 × 10^6 mon and 12.4 ± 0.5 nmoles/5 minues/1.2 × 10^6 mon, respectively.

With LQARILAVERYLKDQQL [CS-3], the “average inhibition of human two-way MLC” value is given as 44.5% in experiment [1] (3.75 μM), 74.0% in experiment [1] (7.5 μM) and 88.5% in experiment [1] (15 μM). Also, in experiment [2], the “inhibition of [^125 I]-CKS-17-BSA binding by excess unlabelled material” value is given as “binding could be inhibited”. For the same substance, the “average inhibition of OKT3-stimulated lymphocyte proliferation” value in experiment [3] (ca. 3.75 μM) was found to be 23.2%; in experiment [3] (ca. 7.5 μM) it was 33.4%; in experiment [3] (ca. 15 μM), 40.4%. The “average inhibition of CTLL-2 proliferation” value in experiment [4] (ca. 3.75 μM) came out at 3.5%; in experiment [4] (ca. 7.5 μM) it was 23.2%; in experiment [4] (ca. 15 μM), 81.8%.

Take PPFSLSPVPTL [SP-70]: in experiment [4], the “effect upon CTLL-2 cell proliferation” value is reported as “little or no effect”. In addition, the “O2^- Release” value in experiment [5] (dilution 1:20) is recorded as 10.7 ± 0.5 nmoles/5 minues/1.2 × 10^6 mon; in experiment [5] (dilution 1:40) it was 11.6 ± 0.2 nmoles/5 minues/1.2 × 10^6 mon.

Take PVMHPHGAPPNHRPWGMKNLQAIK [SP-16]: the “effect upon CTLL-2 cell proliferation” value in experiment [4] is “little or no effect”. In addition, the “O2^- Release” value in experiment [5] (dilution 1:20) is 9.8 ± 0.2 nmoles/5 minues/1.2 × 10^6 mon; in experiment [5] (dilution 1:40), 12.4 ± 0.6 nmoles/5 minues/1.2 × 10^6 mon.

As to QYAAQNRRGLDLL [SP-74], in experiment [4], the “effect upon CTLL-2 cell proliferation” value is recorded as “little or no effect”. The entries for the “O2^- Release” value in experiment [5] (dilution 1:20) and in experiment [5] (dilution 1:40) were 10.7 ± 0.4 nmoles/5 minues/1.2 × 10^6 mon and 12.5 ± 0.5 nmoles/5 minues/1.2 × 10^6 mon, respectively.

The values above are taken from patent publication US4822606A, “Immunosuppressive synthetic peptides and analogs thereof based on retroviral envelope sequences” (Duke University, priority 1986, dated 1989).
